Literature values as cited in patent US12590297B2, “Differentiation method” (Koninklijke Nederlandse Akademie Van Wetenschappen, priority 2016, dated 2026).

How the values were obtained:
[1] = target: T1, glucocorticoid receptor (Homo sapiens, UniProt P04150); details: in comparison to cortisol; oral dosing; cited from earlier work
T1 sequence (P04150 1-777): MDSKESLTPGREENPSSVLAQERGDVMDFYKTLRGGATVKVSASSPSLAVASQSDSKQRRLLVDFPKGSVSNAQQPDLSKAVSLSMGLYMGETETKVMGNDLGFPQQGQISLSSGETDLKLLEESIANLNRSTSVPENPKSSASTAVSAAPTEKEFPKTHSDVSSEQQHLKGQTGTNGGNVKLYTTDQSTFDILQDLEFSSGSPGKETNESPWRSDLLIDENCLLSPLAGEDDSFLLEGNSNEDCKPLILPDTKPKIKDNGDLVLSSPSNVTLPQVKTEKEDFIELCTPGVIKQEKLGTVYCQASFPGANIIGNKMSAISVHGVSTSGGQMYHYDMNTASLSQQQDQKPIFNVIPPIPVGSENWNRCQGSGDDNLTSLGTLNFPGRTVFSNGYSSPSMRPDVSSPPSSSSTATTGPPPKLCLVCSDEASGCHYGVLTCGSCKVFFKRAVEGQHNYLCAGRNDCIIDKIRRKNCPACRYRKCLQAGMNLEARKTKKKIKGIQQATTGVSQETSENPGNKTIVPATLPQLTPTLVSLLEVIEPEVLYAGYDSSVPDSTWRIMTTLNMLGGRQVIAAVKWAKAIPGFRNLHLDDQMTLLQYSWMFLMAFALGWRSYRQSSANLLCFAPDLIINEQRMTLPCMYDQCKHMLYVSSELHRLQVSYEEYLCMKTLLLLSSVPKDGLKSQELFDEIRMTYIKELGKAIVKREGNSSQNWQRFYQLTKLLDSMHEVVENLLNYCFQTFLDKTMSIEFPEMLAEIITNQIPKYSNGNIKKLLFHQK

[2] = target: T2, ALK5 (TGF-βR1) (Homo sapiens, UniProt P36897); details: high concentrations; p38 MAP kinase inhibitor; cited from earlier work
T2 sequence (P36897 34-503): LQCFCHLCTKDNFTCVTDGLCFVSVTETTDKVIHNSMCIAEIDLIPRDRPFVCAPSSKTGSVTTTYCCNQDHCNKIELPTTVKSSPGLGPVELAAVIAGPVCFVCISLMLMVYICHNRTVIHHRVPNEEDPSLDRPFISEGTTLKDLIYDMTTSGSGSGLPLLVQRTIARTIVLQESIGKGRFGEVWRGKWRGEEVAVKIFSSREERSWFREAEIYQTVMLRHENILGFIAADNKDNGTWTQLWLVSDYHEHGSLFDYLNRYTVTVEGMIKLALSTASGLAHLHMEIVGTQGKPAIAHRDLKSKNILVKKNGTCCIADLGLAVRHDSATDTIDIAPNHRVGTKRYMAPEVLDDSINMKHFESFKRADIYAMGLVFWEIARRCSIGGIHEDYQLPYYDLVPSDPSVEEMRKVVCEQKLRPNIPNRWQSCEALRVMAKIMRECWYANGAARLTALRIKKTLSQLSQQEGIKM

Structure (SMILES) | Glucocorticoid potency [1] | concentration at which thought to inhibit ALK5 [2]
C[C@]12CCC(=O)C=C1CC[C@@H]1[C@@H]2[C@@H](O)C[C@@]2(C)[C@H]1CC[C@]2(O)C(=O)CO [Cortisol (hydrocortisone), Cortisol] | 1 | 
C[C@]12CCC(=O)C=C1CC[C@@H]1[C@@H]2C(=O)C[C@@]2(C)[C@H]1CC[C@]2(O)C(=O)CO [Cortisone] | 0.8 | 
C[C@]12C=CC(=O)C=C1CC[C@@H]1[C@@H]2[C@@H](O)C[C@@]2(C)[C@H]1CC[C@]2(O)C(=O)CO [Prednisolone] | 4 | 
C[S+]([O-])c1ccc(-c2nc(-c3ccc(F)cc3)c(-c3ccncc3)[nH]2)cc1 (centres unmarked) [SB-203580] |  | ≥ 10 µM
C[C@]12C=CC(=O)C=C1CC[C@H]1[C@@H]3C[C@@H](O)[C@](O)(C(=O)CO)[C@@]3(C)C[C@H](O)[C@@]12F [Triamcinolone] | 5 | 
